Measurements taken from PubChem BioAssay AID1963867 (Molecular Pharmacology Branch, DTP, NCI, 2024).

Test system: KRAS-mutant PDC tumor spheroid with HUVEC/MSC, viability
Experiment: Anticancer human tumor 327498-153-R-J2-PDC patient-derived uterine carcinosarcoma cell line growth inhibition [KRAS2]
Conditions: for IC50: curve of first compound; for viability, T/C: stronger effect = lower value
How it was run: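 KRAS-mutant tumor cells were grown as spheroids with HUVEC endothelial cells and human MSCs as stroma. Targeted agents were tested alone and with KRAS pathway inhibitors. Doses started at or near clinical Cmax, or 10 microM, descending half-log.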

[1] = second compound 0.0316 µM, first compound 0.0316 µM
[2] = second compound 0.0316 µM, first compound 0.1 µM
[3] = second compound 0.1 µM, first compound 0.0316 µM
[4] = second compound 0.1 µM, first compound 0.1 µM
[5] = second compound 0.316 µM, first compound 0.0316 µM
[6] = second compound 0.316 µM, first compound 0.1 µM
[7] = second compound 1 µM, first compound 0.0316 µM
[8] = second compound 1 µM, first compound 0.1 µM
[9] = second compound 3.16 µM, first compound 0.0316 µM
[10] = second compound 3.16 µM, first compound 0.1 µM
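Further: spheroids exposed to agents for seven days before reading.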
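Wherever viability, T/C is given: 100% = DMSO vehicle wells so lower means fewer viable cells.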

CN(C)C/C=C/C(=O)Nc1cc2c(Nc3ccc(F)c(Cl)c3)ncnc2cc1O[C@H]1CCOC1 + C=CC(=O)N1CCN(c2nc(OCC3CCCN3C)nc3c2CCN(c2cccc4cccc(C)c24)C3)CC1CC#N
IC50 (second compound 0.0316 µM): > 100 nM | IC50 (second compound 0.1 µM): 22 nM | IC50 (second compound 0.316 µM): 2.29 nM | IC50 (second compound 1 µM): 2.8 nM | IC50 (second compound 3.16 µM): < 0.316 nM | viability, T/C (second compound 0.0316 µM, first compound 0.000316 µM): 88.8% | viability, T/C (second compound 0.0316 µM, first compound 0.001 µM): 80.8% | viability, T/C (second compound 0.0316 µM, first compound 0.00316 µM): 74.4% | viability, T/C (second compound 0.0316 µM, first compound 0.01 µM): 64.2% | viability, T/C [1]: 66.5% | viability, T/C [2]: 61.4% | viability, T/C (second compound 0.1 µM, first compound 0.000316 µM): 62.9% | viability, T/C (second compound 0.1 µM, first compound 0.001 µM): 64.1% | viability, T/C (second compound 0.1 µM, first compound 0.00316 µM): 50.8% | viability, T/C (second compound 0.1 µM, first compound 0.01 µM): 53.7% | viability, T/C [3]: 48.4% | viability, T/C [4]: 47.5% | viability, T/C (second compound 0.316 µM, first compound 0.000316 µM): 66.8% | viability, T/C (second compound 0.316 µM, first compound 0.001 µM): 56.2% | viability, T/C (second compound 0.316 µM, first compound 0.00316 µM): 45.2% | viability, T/C (second compound 0.316 µM, first compound 0.01 µM): 44.8% | viability, T/C [5]: 50.2% | viability, T/C [6]: 45.1% | viability, T/C (second compound 1 µM, first compound 0.000316 µM): 56.3% | viability, T/C (second compound 1 µM, first compound 0.001 µM): 54.9% | viability, T/C (second compound 1 µM, first compound 0.00316 µM): 47% | viability, T/C (second compound 1 µM, first compound 0.01 µM): 49.1% | viability, T/C [7]: 43.6% | viability, T/C [8]: 44% | viability, T/C (second compound 3.16 µM, first compound 0.000316 µM): 1.53% | viability, T/C (second compound 3.16 µM, first compound 0.001 µM): 0.35% | viability, T/C (second compound 3.16 µM, first compound 0.00316 µM): 0.21% | viability, T/C (second compound 3.16 µM, first compound 0.01 µM): 1.34% | viability, T/C [9]: 0.49% | viability, T/C [10]: 0.3%

COC(=O)c1ccc2c(C(=Nc3ccc(N(C)C(=O)CN4CCN(C)CC4)cc3)c3ccccc3)c(O)[nH]c2c1 + C=CC(=O)N1CCN(c2nc(OCC3CCCN3C)nc3c2CCN(c2cccc4cccc(C)c24)C3)CC1CC#N
IC50 (second compound 0.0316 µM): 142 nM | IC50 (second compound 0.1 µM): < 31.6 nM | IC50 (second compound 0.316 µM): < 31.6 nM | IC50 (second compound 1 µM): < 31.6 nM | IC50 (second compound 3.16 µM): < 31.6 nM | viability, T/C [1]: 52.8% | viability, T/C [2]: 54.7% | viability, T/C (second compound 0.0316 µM, first compound 0.316 µM): 42.9% | viability, T/C (second compound 0.0316 µM, first compound 1 µM): 23.4% | viability, T/C (second compound 0.0316 µM, first compound 3.16 µM): 8.28% | viability, T/C (second compound 0.0316 µM, first compound 10 µM): 7.36% | viability, T/C [3]: 45.9% | viability, T/C [4]: 42% | viability, T/C (second compound 0.1 µM, first compound 0.316 µM): 37.1% | viability, T/C (second compound 0.1 µM, first compound 1 µM): 13% | viability, T/C (second compound 0.1 µM, first compound 3.16 µM): 7.74% | viability, T/C (second compound 0.1 µM, first compound 10 µM): 5.84% | viability, T/C [5]: 49.2% | viability, T/C [6]: 41.6% | viability, T/C (second compound 0.316 µM, first compound 0.316 µM): 29.6% | viability, T/C (second compound 0.316 µM, first compound 1 µM): 14.4% | viability, T/C (second compound 0.316 µM, first compound 3.16 µM): 5.46% | viability, T/C (second compound 0.316 µM, first compound 10 µM): 4% | viability, T/C [7]: 38.6% | viability, T/C [8]: 21.5% | viability, T/C (second compound 1 µM, first compound 0.316 µM): 16.4% | viability, T/C (second compound 1 µM, first compound 1 µM): 9.18% | viability, T/C (second compound 1 µM, first compound 3.16 µM): 0.69% | viability, T/C (second compound 1 µM, first compound 10 µM): 1.72% | viability, T/C [9]: 0.33% | viability, T/C [10]: 0.16% | viability, T/C (second compound 3.16 µM, first compound 0.316 µM): 0.15% | viability, T/C (second compound 3.16 µM, first compound 1 µM): 0.12% | viability, T/C (second compound 3.16 µM, first compound 3.16 µM): 1.49% | viability, T/C (second compound 3.16 µM, first compound 10 µM): 0.32%
